Data from ChEMBL document CHEMBL1142123, “Guttiferones K and L, antiproliferative compounds of Rheedia calcicola from the Madagascar rain forest” (J Nat Prod, 2007).
Values after ≈ are worked out from the molar mass of the structure shown.

Tested on: A2780
Assay: Antiproliferative activity against human A2780 cells
Assay type: functional, cell-based

IC50: 3 µg/mL (≈ 4.85 µM)
SMILES: CC(C)=CCC[C@@]1(C)[C@H](CC=C(C)C)C[C@]2(CC=C(C)C)C(=O)[C@@]1(CC=C(C)C)C(=O)C(C(=O)c1cc(O)c(O)cc1O)=C2O [GUTTIFERONE L]
